Assay results from patent US11471425B2, “Pharmaceutical composition containing broussochalcone a as active ingredient for treatment of inflammatory bowel disease” (BIOPHARMARESEARCHLAB CO., LTD., priority 2017, dated 2022).
Like-named read-outs stand apart in the source and are kept apart here.

Assays:
[1] = tested on: ulcerative colitis-induced mice; test: Colon length in DSS-induced ulcerative colitis mice; format: in vivo, C57BL/6J mice; conditions: 3% (w/v) DSS from day 3; oral 100 μl/10 g bw; colon extracted on day 11
Procedure: (§1) On day 11, the mice were sacrificed by intraperitoneal injection of Alfaxan (Jurox Pty Limited, Australia), and then the colon, which ranges from the cecum site to the site immediately before the anus, was extracted. After all colonic contents in the colon tissues were removed, some specimens were fixed in 4% (v/v) paraformaldehyde fixative for use as pathological specimens, and the other specimens were stored frozen at −80° C. for molecular biological analysis.

myeloperoxidase (MPO) = test: Myeloperoxidase (MPO) activity in colon tissues of ulcerative colitis-induced mice; format: in vivo, C57BL/6J mice; conditions: colon tissue, day 11; absorbance at 412 nm, average of three measurements
Procedure: as §1
For the mice for which ulcerative colitis had been induced by DSS, activity of MPO, an inflammatory indicator, was checked.
The colon tissues stored frozen in Example 3 were analyzed using the […] Colorimetric Activity Assay Kit (Sigma, USA), in which absorbance at a wavelength of 412 nm was measured three times to calculate an average value.

[2] = Food intake by ulcerative colitis-induced mice; conditions: 3% (w/v) DSS from day 3; oral 100 μl/10 g bw; measured daily, day 0 to day 11
Source text: (§2) In addition, changes in body weight and food intake were observed by measuring the body weight and food intake at daily intervals from the start (day 0) to the end (day 11) of the animal experiment.
(§3) 7-Week-old C57BL/6J mice were purchased from Central Lab. Animal Inc. (Seoul, Korea) and acclimatized for 7 days to an experimental environment, which was maintained at constant humidity and constant temperature under a 12-hour light/dark cycle, while allowing them to access solid feed and water ad libitum. After 7 days of acclimatization period, the mice were divided into normal group, control group, positive control group (sulfasalazine), and BA experimental group (broussochalcone A) (Table 1).
(§4) Sulfasalazine (Sigma, USA) was quantified at 150 mg and dissolved in 1 ml of DMSO to prepare an SUL solution. 9 ml of Koliphor EL was diluted in PBS to prepare a 10% (v/v) Koliphor solution. The SUL solution was mixed with 9 ml of 10% (v/v) Koliphor solution to prepare an SUL specimen. Then, the SUL specimen was quantified and orally administered at 100 μl/10 g·body weight (bw) to the positive control group. […]
(§5) Broussochalcone A (Natural Products Bank, Korea) was quantified at 20 mg and dissolved in 1 ml of DMSO to prepare a BA solution. […] Then, the BA specimen was quantified and orally administered at 100 μl/10 g·body weight (bw) to the BA experimental group. […]

[3] = tested on: colon tissues of ulcerative colitis-induced mice; test: Histological analysis (H&E staining) of colon tissues of ulcerative colitis-induced mice; format: in vivo, C57BL/6J mice; conditions: 4 μm paraffin sections, colon extracted on day 11
Procedure: as §1
The colon tissues stored frozen in Example 3 were fixed in 4% paraformaldehyde for 48 hours and then washed with PBS. The fixed tissues were embedded in paraffin, cut into 4 μm thickness, and stained with hematoxylin and eosin. Then, the stained tissues were observed under a microscope.

[4] = tested on: ulcerative colitis-induced mice; test: Disease activity index (DAI) in DSS-induced ulcerative colitis mice; format: in vivo, C57BL/6J mice; conditions: 3% (w/v) DSS in drinking water from day 3; specimen orally at 100 μl/10 g bw; compared with control group
Procedure: The normal group received a mixture of 9 ml of Koliphor EL (Sigma, USA) and 1 ml of DMSO at the same dose as the BA experimental group. The normal group was allowed to access water ad libitum during the experimental period.
The control group received a mixture of 9 ml of Koliphor EL (Sigma, USA) and 1 ml of DMSO at the same dose as the BA experimental group.
During the experimental period, the mice were caused to defecate once a day. Feces appearance was observed and fecal occult blood was observed using the Beckman Coulter Hemoccult Single Slides (Beckman Coulter, Inc., USA). The observation results were expressed in scores according to the criteria in Table 2.
Disease activity index (DAI)=(Fecal consistency+fecal color)/2

[5] = Changes in body weight of ulcerative colitis-induced mice; format: in vivo, C57BL/6J mice; conditions: 3% (w/v) DSS from day 3; oral 100 μl/10 g bw; measured daily from day 0
Procedure: Since ulcerative colitis-induced animals lose weight, a symptom-alleviating effect was checked by measuring changes in body weight.
For the respective normal group, control group, positive control group, and BA experimental group prepared in Example 1, the body weight was measured using a precision balance at the start of the experiment (day 0), and changes in body weight were measured at daily intervals for comparison.

[6] = mouse, in vivo, po
Source text: as §2, §3, §4, §5

Structure (SMILES) | colon length compared with the normal group (in words) [1] | MPO activity as compared with the normal group (in words) (myeloperoxidase (MPO)) | food intake compared with the normal group [2] | histological changes in colon tissue: structure of the mucosa [3] | Disease activity index (DAI) = (fecal consistency + fecal color)/2 [4] | decrease in body weight [5] | colon length shorter than that of the normal group [1] | increase in MPO activity as compared with the normal group (myeloperoxidase (MPO)) | histological changes in colon tissue: goblet cells and surface epithelium [3] | histological changes in colon tissue: immune cell penetration [3] | food intake compared with the normal group [6]
CC(C)=CCc1cc(C(=O)/C=C/c2ccc(O)c(O)c2)c(O)cc1O [broussochalcone A] | colon length similar to that of the normal group | did not exhibit significantly different MPO activity as compared with the normal group | an increase in food intake as compared with the normal group | the structure of the mucosa was maintained | lower DAI than the control group | about 5% |  |  |  |  | 
O=C(O)c1cc(/N=N/c2ccc(S(=O)(=O)Nc3ccccn3)cc2)ccc1O [sulfasalazine, Sulfasalazine] |  |  |  | the structure of the mucosa was partially maintained | high DAI | about 20% | about 2.8 cm | about 1.5 fold | had lost goblet cells and surface epithelium | many immune cells had penetrated the colon tissues | a decrease in food intake
